From US4943574A, “(1H-azol-1-ylmethyl) substituted benzotriazole derivatives and pharmaceutical compositions containing them” (Janssen Pharmaceutica N.V., priority 1989, dated 1990)
Where a name gives a salt, the structure may show the parent alone. Read-outs that look alike come from different tables or passages of the source.

Assays:
[1] = tested on: aromatase; assay: In vivo-inhibition of the aromatase activity (plasma estradiol in PMSG-injected immature female Wistar rats); set-up: species or system rat (immature female Wistar rats)
Method: Immature female Wistar rats weighing 120 g were injected subcutaneously with 200 I.U. of pregnant mare's serum gonadotropin (PMSG). […] Control animals received 20% polyethyleneglycol only. Two hours following drug or placebo administration the rats were killed by decapitation and trunk blood was collected on heparine. Plasma estradiol concentrations were measured by standard radio-immunological procedures.

[2] = biological target: T1, aromatase (Homo sapiens, UniProt P11511); assay: biochemical; settings: read-out: IC50-values (concentration of the compound required to obtain 50% inhibition of the estrogen synthesis)
T1 sequence (P11511 1-503): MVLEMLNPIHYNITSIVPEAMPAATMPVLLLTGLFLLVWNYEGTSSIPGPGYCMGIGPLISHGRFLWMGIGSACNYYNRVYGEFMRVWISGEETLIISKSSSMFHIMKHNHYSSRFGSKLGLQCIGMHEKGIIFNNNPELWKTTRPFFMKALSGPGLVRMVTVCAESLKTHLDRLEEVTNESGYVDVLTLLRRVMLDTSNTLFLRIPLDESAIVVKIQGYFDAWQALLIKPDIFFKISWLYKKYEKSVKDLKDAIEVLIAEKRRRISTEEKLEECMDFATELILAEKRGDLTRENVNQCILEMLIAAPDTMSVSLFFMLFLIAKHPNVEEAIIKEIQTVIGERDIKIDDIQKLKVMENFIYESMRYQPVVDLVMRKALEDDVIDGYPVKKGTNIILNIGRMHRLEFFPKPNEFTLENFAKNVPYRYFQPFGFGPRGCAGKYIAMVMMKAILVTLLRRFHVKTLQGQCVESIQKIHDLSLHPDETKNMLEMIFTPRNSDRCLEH
Method: Human placental microsomes were diluted in potassium phosphate buffer (0.1M, pH 7.4) to give about 50% conversion of androgens to estrogens (protein content: about 0.5 mg). Four ml human placental microsomes were incubated in a final volume of 5 ml with 0.2 μCi1,2[3H]-androstenedione, 2 μg androstendione and 5 μl of test compound and/or dimethyl sulfoxide (DMSO). […] The reaction was initiated by the addition of androstenedione and proceeded for 30 min at 37° C. During the incubation period, the mixtures were gassed with air. In this assay, aromatization of androstenedione results in the production of [3H]-H2 O which is isolated by extracting the samples with chloroform to remove the free steroid.

[3] = 1 mg/kg oral gavage, two hours following administration, PMSG-injected immature female Wistar rats
[4] = human placental microsomes, 30 min at 37° C., pH 7.4, 1,2[3H]androstenedione

SMILES	IC50 [2, 4]	% recovery estradiol (plasma estradiol relative to the controls) [1, 3]	% recovery estradiol (plasma estradiol relative to the controls) ([1]; rat, in vivo)	IC50 [2]
CCCCn1nnc2ccc(C(c3ccccc3)n3ccnc3)cc21.O=C(O)C(=O)O (stereo not drawn) [Compound 75, 1-butyl-6-[(1H-imidazol-1-yl)phenylmethyl]-1H-benzotriazole ethanedioate(1:1)]	24.2 nM	27%		
Cn1nnc2ccc(C(c3ccc(C(F)(F)F)cc3)n3ccnc3)cc21 (stereo not drawn) [Compound 55]	18.8 nM	3%		
c1ccc(-c2ccc(COn3nnc4ccc(Cn5ccnc5)cc43)cc2)cc1 [Compound 191]	23.4 nM			
Cn1nnc2ccc(C(c3ccc(Br)cc3)n3ccnc3)cc21 (stereo not drawn) [Compound 51]	22.2 nM	7%		
Clc1ccc(C(c2ccc3nnn(-c4ccccc4)c3c2)n2ccnc2)cc1.O=[N+]([O-])O (stereo not drawn)			21%	
CCCCOn1nnc2ccc(Cn3ccnc3)cc21.Cl [Compound 226, 1-butoxy-6-(1H-imidazol-1-ylmethyl)-1H-benzotriazole monohydrochloride]	6.7 nM	19%		
CCCCn1nnc2ccc(C(c3ccc(F)cc3)n3ccnc3)cc21 (stereo not drawn) [Compound 17]	18.2 nM	7%		
C#CCOn1nnc2ccc(Cn3ccnc3)cc21 [Compound 179]	23.2 nM			
CCCC(c1ccc2nnn(C)c2c1)n1ccnc1 (stereo not drawn) [Compound 31]	34.2 nM	8%		
Fc1ccc(C(c2ccc3[nH]nnc3c2)n2ccnc2)cc1 (stereo not drawn) [Compound 113]	18.8 nM	4%		
Cc1cncn1C(c1ccccc1)c1ccc2nnn(OCc3ccccc3)c2c1 (stereo not drawn) [Compound 213]	36.2 nM			
Cn1nnc2ccc(C(c3ccccc3Cl)n3ccnc3)cc21 (stereo not drawn) [Compound 56]	21.5 nM	8%		
CCn1nnc2ccc(Cn3ccnc3)cc21 [Compound 102]	31.7 nM	2%		
OCCCn1nnc2ccc(Cn3ccnc3)cc21 [Compound 109]	26.2 nM			
Cn1nnc2ccc(C(c3ccccc3)n3ccnc3)cc21 (stereo not drawn) [Compound 90]	22.7 nM	5%		
CCCCn1nnc2ccc(C(c3ccc(Cl)cc3)n3ccnc3)cc21 (stereo not drawn) [Compound 15]	22.6 nM	2%		
C=CCn1nnc2ccc(Cn3ccnc3)cc21 [Compound 106]	24.4 nM	8%		
CC(C)n1nnc2ccc(C(c3ccccc3)n3ccnc3)cc21.O=C(O)C(=O)O (stereo not drawn) [Compound 76, 6-[(1H-imidazol-1-yl)phenylmethyl]-1-(1-methylethyl)-1H-benzotriazole ethanedioate(1:1)]	34.7 nM	9%		
Cn1nnc2ccc(C(c3cccc(Cl)c3)n3ccnc3)cc21 (stereo not drawn) [Compound 28]	25.3 nM	6%		
Clc1ccc(C(c2ccc3nnn(-c4ccccc4)c3c2)n2ccnc2)cc1.O=[N+]([O-])O (stereo not drawn) [mononitrate]				17.6 nM
Cn1nnc2ccc(C(c3ccsc3)n3ccnc3)cc21 (stereo not drawn) [Compound 69, 6-[(1H-imidazol-1-yl) (3-thienyl)methyl]-1-methyl-1H-benzotriazole]	29 nM	5%		
CC(C)n1nnc2ccc(C(c3ccc(Cl)cc3)n3ccnc3)cc21 (stereo not drawn) [Compound 116]	24.9 nM	20%		
Cn1nnc2ccc(C(c3cccc(F)c3)n3ccnc3)cc21 (stereo not drawn) [Compound 33]	24.6 nM	5%		
c1ccc(C(c2ccc3nnn(C4CCCCC4)c3c2)n2ccnc2)cc1 (stereo not drawn) [Compound 104]	20.6 nM	9%		
COCCOn1nnc2ccc(Cn3ccnc3)cc21 [Compound 220, 6-(1H-imidazol-1-ylmethyl)-1-(2-methoxyethoxy)-1H-benzotriazole]	20 nM			
c1ccc(COn2nnc3ccc(C(c4ccccc4)n4ccnc4)cc32)cc1 (stereo not drawn) [Compound 188]	18.2 nM			

More lines, main results first:

IC50 [2, 4]	SMILES	% recovery estradiol (plasma estradiol relative to the controls) [1, 3]	% recovery estradiol (plasma estradiol relative to the controls) ([1]; rat, in vivo)	IC50 [2]
12 nM	CC(C)On1nnc2ccc(Cn3ccnc3)cc21 [Compound 195, 6-(1H-imidazol-1-ylmethyl)-1-(1-methylethoxy)-1H-benzotriazole]	19%		
7.4 nM	CCCOn1nnc2ccc(Cn3ccnc3)cc21 [Compound 227, 6-(1H-imidazol-1-ylmethyl)-1-propoxy-1H-benzotriazole monohydrochloride. hemihydrate]	19%		
12 nM	c1ccc(SCOn2nnc3ccc(Cn4ccnc4)cc32)cc1 [Compound 176]			
10.5 nM	CC(C)CCn1nnc2ccc(Cn3ccnc3)cc21 [Compound 93]	8%		
8.8 nM	Clc1ccc(Cn2nnc3ccc(Cn4ccnc4)cc32)cc1 [Compound 91]			
7.3 nM	c1ccc(CCCOn2nnc3ccc(Cn4ccnc4)cc32)cc1 [Compound 207]	26%		
17.4 nM	CCC(C)n1nnc2ccc(Cn3ccnc3)cc21 (stereo not drawn) [Compound 101]	7%		
18 nM	COc1ccc(C(c2ccc3nnn(C)c3c2)n2ccnc2)cc1 (stereo not drawn) [Compound 59]			
13.1 nM	c1cn(Cc2ccc3nnn(CC4CCCCC4)c3c2)cn1 [Compound 97]	10%		
7.1 nM	CCCCCCOn1nnc2ccc(Cn3ccnc3)cc21 [Compound 202]	21%		
16 nM	CC(C)On1nnc2ccc(C(c3ccccc3)n3ccnc3)cc21 (stereo not drawn) [Compound 2]	20%		
10 nM	CCOn1nnc2ccc(Cn3ccnc3)cc21.Cl [Compound 225, 1-ethoxy-6-(1H-imidazol-1-ylmethyl)-1H-benzotriazole monohydrochloride]	19%		
8.9 nM	CC(C)CCn1nnc2ccc(C(c3ccc(Cl)cc3)n3ccnc3)cc21 (stereo not drawn) [Compound 120]			
7.5 nM	CCCCn1nnc2ccc(C(c3cccc(Cl)c3)n3ccnc3)cc21 (stereo not drawn) [Compound 23]			
12 nM	CCCCOn1nnc2ccc(C(c3ccccc3)n3ccnc3)cc21 (stereo not drawn) [Compound 6]			
11 nM	c1cncc(COn2nnc3ccc(Cn4ccnc4)cc32)c1 [Compound 196]			
17 nM	CCCCCCCCCOn1nnc2ccc(Cn3ccnc3)cc21 [Compound 203]			
14.3 nM	c1cn(Cc2ccc3nnn(C4CCCCCC4)c3c2)cn1 [Compound 100]	3%		
8.7 nM	c1ccc(CCn2nnc3ccc(Cn4ccnc4)cc32)cc1 [Compound 92]	15%		
16.3 nM	c1cn(Cc2ccc3nnn(C4CC5CCC4C5)c3c2)cn1 (stereo not drawn) [Compound 103]	5%		
8 nM	CCCCCCCOn1nnc2ccc(Cn3ccnc3)cc21 [Compound 206]			
5.2 nM	c1ccc(COn2nnc3ccc(Cn4ccnc4)cc32)cc1 [Compound 228, 6-(1H-imidazol-1-ylmethyl)-1-(phenylmethoxy)-1H-benzotriazole]			
6.7 nM	CCCCCOn1nnc2ccc(Cn3ccnc3)cc21 [Compound 201]	19%		
18 nM	CCOC(=O)COn1nnc2ccc(Cn3ccnc3)cc21 [Compound 198]			
17.8 nM	Fc1cccc(Cn2nnc3ccc(Cn4ccnc4)cc32)c1 [Compound 99]	11%		
7.6 nM	CCCCn1nnc2ccc(Cn3ccnc3)cc21 [Compound 147, 1-butyl-6-(1H-imidazol-1-ylmethyl)-1H-benzotriazole]	21%		
14.4 nM	c1ccc2c(c1)CCC2n1nnc2ccc(Cn3ccnc3)cc21 (stereo not drawn) [Compound 115]	22%		
11 nM	c1ccc(CCOn2nnc3ccc(Cn4ccnc4)cc32)cc1 [Compound 208]			
11 nM	CCC(C)On1nnc2ccc(Cn3ccnc3)cc21 (stereo not drawn) [Compound 197]			
16 nM	CCOn1nnc2ccc(C(c3ccccc3)n3ccnc3)cc21 (stereo not drawn) [Compound 4]			
